Assay results from article PMC3274619 (Bioorganic & medicinal chemistry letters, 2012).

Assay: Solubility observed during synthesis and purification
Assay type: physicochemical
Conditions: cause of yield and purification difficulties

For `Cc1nc(N)sc1-c1csc(Nc2cc(N(C)C)ccc2Cl)n1` [compound 15, N^2-(2-chloro-5-(dimethylamino)phenyl)-4′-methyl-[4,5′-bithiazole]-2,2′-diamine], which solubility is on record?
The solubility was “poor solubility”.
